Laboratory results as given in patent US20230159436A1, “APPLICATIONS OF AMIDE ANALOGS OF TRITERPENES IN CURES OF CANCER AND OTHER DISEASES” (Pacific Arrow Limited, priority 2021, published 2023).

test system: U2OS, H460, HTB-9, ES2, HCT116, Capan, OVCAR3, DU145, SK-Mel-5, KB, A498, MCF-7, HepG2, T98G, K562, HeLa; test: MTT Cytotoxic Assay of reaction products and isolated compounds; type: cell-based
From the text: The peaks, fractions and compounds are selected according to the activities of times studies and the changes of peaks. Selecting the HPLC fractions for isolation is according to the cytotoxic activity of the reaction product obtained at a specific time. The compounds having strong to weak activities are selected and isolated. Selecting the HPLC fractions for isolation may be according to the cytotoxic activity of times studies and the change of peaks. The anti cancer activities are the MTT studies of bone (U2OS), lung (H460), bladder (HTB-9), ovary (ES2), colon (HCT116), pancreas (Capan), ovary (OVCAR3), prostate (DU145), skin (SK-Mel-5), mouth (KB), kidney (A498), breast (MCF-7), liver (HepG2), brain (T98G), luekemia (K562), cervix (HeLa).
Esterification, amidation, amination, or sulfonamidation of compound (A), (B), (C), (D1), (D2), (E), (F), (G), (H1), (H2), E4A, E4A2Y, E4D, E4D1, (P1), P(2), terpene, isoprene, triterpenes, hydroxylated triterpenes, with acyl halide, wherein the halide comprise chloride, bromide, fluoride and iodide, wherein the acyl halide comprise acyl chloride, wherein acyl chloride comprise tigloyl chloride, angeloyl chloride, acetyl chloride, crotonoyl chloride, 3,3-dimethylartyloyl chloride, senecioyl chloride, cinnamoyl chloride, pentenoyl chloride, hexanoyl chloride, benzoyl chloride, ethylbutyryl chloride, propionyl chloride, 2-propenoyl chloride, isobutyryl chloride, butyryl chloride, (2E)-2-pentenoyl chloride, 4-Pentenoyl chloride, 5-hexenoyl chloride, heptanoyl chloride, octanoyl chloride, nonanoyl chloride, decanoyl chloride, Lauroyl chloride, myristoyl chloride, oleoyl chloride. The compounds vary in composition when the time or temperature of the reaction is changed. The peaks, fractions and compounds are selected according to the activities of times studies and the changes of peaks. The compounds having strong to weak activities are selected and isolated. The anti cancer activities (Cytotoxic Assay) are the MTT studies of bone (U2OS), lung (H460), bladder (HTB-9), ovary (ES2), colon (HCT116), pancreas (Capan), ovary (OVCAR3), prostate (DU145), skin (SK-Mel-5), mouth (KB), kidney (A498), breast (MCF-7), liver (HepG2), brain (T98G), luekemia (K562), cervix (HeLa). The active esterification, amidation, amination, or sulfonamidation products are purified with HPLC. The reaction product of mixtures and individual compounds are tested with MTT Cytotoxic Assay. Details of method are in Experiment 3 of the present application. A second esterification of compound can be selected from the above experiment results to produce new active compounds. A partial esterification compound is selected from the above experiments to perform a second or repeated with a third esterification with different acyl chloride in order to produce new active compounds with the experiments in the present application. The active compounds of this invention are triterpenes in form of amine, sulfonamides, amide, and urea analogs, providing extremely stable activity in solution. They prolong the activities and duration of drug in a subject.
Cells. HTB-9 (bladder), HeLa-S3 (cervix), DU145 (prostate), H460 (lung), MCF-7 (breast), K562 (leukemia), HCT116 (colon), HepG2 (liver), U2OS (bone), T98G (brain), SK-MEL-5 (Skin) and OVCAR 3, ES2 (ovary), Pancreas (Capan), Mouth (KB), Kidney (A498).
MTT Assay. The procedure for MTT assay followed the method described by Carmichael et al. (1987) with modifications. The cells were seeded into a 96-well plate at for 24 hours before drug-treatment. The cells were then exposed to the drugs for 48, 72, or 96 hours. After the drug-treatment, MTT (0.5 mg/mL) was added to cultures and incubated for an hour. The formazan (product of the reduction of tetrazolium by viable cells) formed and was dissolved with DMSO and the O.D. at 490 nm, and was measured by an ELISA reader. The MTT level of the cells before drug-treatment was also measured (T0). […]

Compound | Cytotoxicity activity
C=CCCC(=O)NCC1(C)C(O)CCC2(C)C1CCC1(C)C2CC=C2C3CC(C)(C)C(O)C(O)C3(CNC(=O)CCC=C)C(O)CC21C (stereo not drawn) [CC2] | strong
CC(=O)NCC1(C)C(N)CCC2(C)C1CCC1(C)C2CC=C2C3CC(C)(C)C(N)C(N)C3(CNC(C)=O)C(N)CC21C (stereo not drawn) [HH1] | moderate
CC(C)=CC(=O)NCC1(C)C(N)CCC2(C)C1CCC1(C)C2CC=C2C3CC(C)(C)C(NC(=O)C=C(C)C)C(N)C3(CN)C(N)CC21C (stereo not drawn) [BB3] | moderate
CC(C)=CC(=O)NCC1(C)C(N)CCC2(C)C1CCC1(C)C2CC=C2C3CC(C)(C)C(NC(=O)C=C(C)C)C(N)C3(CNC(=O)C=C(C)C)C(N)CC21C (stereo not drawn) [BB4] | weak
CC1(C)CC2C3=CCC4C5(C)CCC(N)C(C)(CNC(=O)c6ccccc6)C5CCC4(C)C3(C)CC(N)C2(CN)C(N)C1NC(=O)c1ccccc1 (stereo not drawn) [KK3] | moderate
CC(C)C(=O)NCC1(C)C(N)CCC2(C)C1CCC1(C)C2CC=C2C3CC(C)(C)C(NC(=O)C(C)C)C(N)C3(CNC(=O)C(C)C)C(N)CC21C (stereo not drawn) [NN4] | weak
C=CCCC(=O)NCC1(C)C(N)CCC2(C)C1CCC1(C)C2CC=C2C3CC(C)(C)C(NC(=O)CCC=C)C(N)C3(CN)C(N)CC21C (stereo not drawn) [CC3] | moderate
C=CC(=O)NCC1(C)C(O)CCC2(C)C1CCC1(C)C2CC=C2C3CC(C)(C)C(O)C(O)C3(CNC(=O)C=C)C(O)CC21C (stereo not drawn) [MM2] | strong
CC1(C)CC2C3=CCC4C5(C)CCC(N)C(C)(CNC(=O)C=Cc6ccccc6)C5CCC4(C)C3(C)CC(N)C2(CN)C(N)C1NC(=O)C=Cc1ccccc1 (stereo not drawn) [JJ3] | moderate
CCC=CC(=O)NCC1(C)C(N)CCC2(C)C1CCC1(C)C2CC=C2C3CC(C)(C)C(N)C(N)C3(CNC(=O)C=CCC)C(N)CC21C (stereo not drawn) [QQ1] | moderate
CC=CC(=O)NCC1(C)C(N)CCC2(C)C1CCC1(C)C2CC=C2C3CC(C)(C)C(NC(=O)C=CC)C(N)C3(CNC(=O)C=CC)C(N)CC21C (stereo not drawn) [II 4] | weak
CCC(=O)NCC1(C)C(N)CCC2(C)C1CCC1(C)C2CC=C2C3CC(C)(C)C(NC(=O)CC)C(N)C3(CN)C(N)CC21C (stereo not drawn) [LL3] | moderate
CCC(CC)C(=O)NCC1(C)C(O)CCC2(C)C1CCC1(C)C2CC=C2C3CC(C)(C)C(O)C(O)C3(CNC(=O)C(CC)CC)C(O)CC21C (stereo not drawn) [EE2] | strong

test system: cancer growth, cancer invasion, cells invasion or cancer cell invasion; test: Inhibition of cancer growth and invasion (anti-cancer activity); type: cell-based
From the text: The program is based on the purification methods and biological assays including the MTT assay as described in International Application No. PCT/US05/31900, filed Sep. 7, 2005, U.S. Ser. No. 11/289,142, filed Nov. 28, 2005, and U.S. Ser. No. 11/131,551, filed May 17, 2005, and PCT/US2008/002086, 1188-ALA-PCT, filed Feb. 15, 2008, Ser. No. 12/344,682, 1020-B1-US, filed Dec. 29, 2008, US009499577B2, filed Jun. 24, 2014. The details of Analysis of gene expression of ES2 cells after Y-treatment by Microarray, Data Analysis Methods and Western blot in PCT/US2008/002086, 1188-ALA-PCT, filed Feb. 15, 2008, and the cell invasion experiments methods in International Application PCT/US2010/0042240, filed Jul. 16, 2010.

Compound | inhibiting cancer growth, cancer invasion, cells invasion or cancer cell invasion
CC1O[C@@H](O[C@H]2C(O)[C@@H](O)C(C)O[C@H]2O[C@H]2C(O)[C@@H](O)C(CO)O[C@H]2OC2[C@H](O)C(C(=O)O)O[C@@H](O[C@H]3CC[C@@]4(C)C(CC[C@]5(C)C4CC[C@]46O[C@H](O)[C@]7(C4CC(C)(C)[C@@H](O)[C@@H]7O)[C@H](O)C[C@]65C)C3(C)C)[C@H]2O[C@@H]2OC(CO)[C@H](O)C(O)[C@@H]2O)[C@@H](O)C(O)[C@H]1O (stereo partly drawn) [AKOH-M10, reference compound] | do not show the ability
CC1(C)CC2C3=CCC4[C@@]5(C)CC[C@H](O[C@@H]6OC(C(=O)O)[C@@H](O)C(O[C@@H]7O[C@@H](CO)C(O)[C@@H]7O)[C@@H]6O[C@@H]6OC(CO)[C@H](O)C(O)[C@@H]6O)C(C)(C)C5CC[C@@]4(C)[C@]3(C)[C@@H](O)[C@@H](O)[C@@]2(CO)[C@@H](O)[C@@H]1O (stereo partly drawn) [AKOH-Y, reference compound] | do not show the ability
